# Measurements from patent publication US20240002786A1, “SHRINKABLE HYDROGELS” (THE BRIGHAM AND WOMEN'S HOSPITAL, INC., priority 2020, published 2024).
# Test: Hydrogel disc shrinking capacity with polycation solutions
# Protocol: Hydrogels were made from gelMA A or B, fish GelMA, and/or HAMA and were prepared at different concentrations. GelMA formulations were dissolved whilst stirring in MilliQ water at 37° C. for 2 h. HAMA formulations were dissolved into MilliQ water overnight under agitation. Both HAMA and gelMA solutions were supplemented with 0.1 wt % Irgacure 2959 (Sigma-Aldrich) prior to UV crosslinking. The prepared polymer solutions were cast in circular PDMS molds (diameter: 4.5 cm) and subsequently UV-irradiated (methacrylate conversion was determined to be >95%). Subsequently, a biopsy punch (Integra Miltex, various diameters) was used to cut cylindrical hydrogels of 2 mm in height.
# Shrinking agents were dissolved overnight in either phosphate-buffered saline (170 mM of ionic strength, pH 7.4) or diluted or NaCl-supplemented phosphate buffer (17-700 mM ionic strengths, pH 7.4) for up to 2.0 wt %. Cut hydrogels were initially measured using Vernier calipers (standard error=30 μm) to determine their volumes and subsequently incubated in the various shrinking agent solutions (volume: 2 mL, n=3 for every condition). Unless stated otherwise, incubation was done at room temperature. Hydrogel diameter and height were monitored either over time to determine hydrogel shrinking kinetics or after full dehydration had occurred to determine maximum shrinking capacity (typically after 12 h).
substance,measurement,setting,value
lysozyme,hydrogel shrinking,isotonic conditions (170 mM of ionic strength and pH 7.4),did not shrink at all
same,hydrogel shrinking,"reduced ionic strength (85 mM, pH 7.4)",hydrogel shrinking was observed
